{"source": "patent US20060167057A1", "about": "“Compounds for the treatment of CNS and amyloid associated diseases” (priority 2004, published 2006)", "system": "SH-SY5Y cells", "assay": "Hoechst staining assay of Aβ1-42-induced apoptosis", "assay_type": "cell-based", "conditions": "Homo sapiens, 10 μM Aβ1-42, 200 μM compound, 24 hours, read-out: inhibition of Aβ-induced cellular apoptosis at DNA level", "experimental": "SH-SY5Y cells were cultured and sub-cultured according to ATCC's recommendations. Cells were grown in a culture medium containing 10% fetal bovine serum (FBS), 1× non-essential amino acids in a 1:1 mixture of Eagle's minimum essential medium and Ham's F12 medium.\nFor passage, cells were trypsinized with 0.25% (w/vol) Trypsin/Ethylene-diaminetetraacetic (EDTA) for 5 min at 37° C., and then centrifuged for 5 min at 300× g (GS-6R Beckman Centrifuge). The pellet was resuspended in the culture medium and the cell density was adjusted.\nSynthetic Aβ1-42 is purchased from American Peptide Company, Sunnyvale, Calif. […] The exact concentration of the solution is calculated by measuring the optical density at 280 nm. […]\nNuclear morphology was observed using an Olympus fluorescent microscope IX50 equipped with an Olympus Camera (20× objectif and a bandpass filter (Ex/Em: 355 nm/465 nm). Live cells and cells considered morphologically apoptotic were counted. Apoptotic nuclei of undifferentiated SH-SY5Y appear condensed and occasionally fragmented (representative pictures of Hoechst staining are in FIGS. 1A-1B for vehicle and 2A-2B for Aβ).\nFive random fields were captured for each condition in a blinded fashion. Apoptotic and normal nuclei in each field were quantified by manual examination. […] The total number of cells counted in each condition ranged from 120 to 550. […]"}
{"smiles": "N[C@@H](Cc1cccc(CSc2nnc(-c3ccccc3)[nH]2)c1)C(=O)O", "note": "[drawing 537]", "values": [{"measurement": "inhibition at 200 µM", "result": 22.5, "unit": "%"}]}
